This note sets out measurements from PMC8333062, “Chemical tools for epichaperome-mediated interactome dysfunctions of the central nervous system” (Nature Communications, 2021).

Data set [1] is described as follows: LC-MS/MS profile of brain and tumor extracts. Conditions: 1 h post-intravenous injection.
Data set [2] in a line: PET biodistribution in human patients. Format: in vivo. Conditions: mean n=3. From the text:
To evaluate the brain permeability of PU-HZ151 into the human brain, we produced the [^124I]-labeled derivative and performed serial PET imaging studies of human patients (n = 3; NCT03371420), and derived time-activity (i.e. standard uptake values (SUV) versus time post-administration) curves for the brain and various other tissues (Fig. 2b). PET data obtained for [^124I]-labeled PU-H71 (NCT01269593 and ref. [39]) were used for comparison. […] The AUC values recorded for [^124I]-PU-HZ151 in the human brain post-single injection are at par with what was measured in the human muscle and lung, supportive of uptake of PU-HZ151 into the human brain (Fig. 2b). Magnetic resonance imaging (MRI), by offering structural and soft tissue resolution, confirmed the presence of PU-HZ151 in the brain tissue (Fig. 2d). […] The secondary outcome of the trial was to measure adverse events following administration of the probe. Safety of [^124I]-PU-HZ151 in human subjects was assessed by evaluation of the incidence, nature, and severity of adverse events and serious adverse events (Supplementary Note 2).
[^124I]-PU-HZ151 and [^124I]-PU-H71 were synthesized in-house by the institutional cyclotron core facility at high specific activity. Analyses of the epichaperome by positron emission tomography (PET-CT) were performed as previously reported. In brief, research PET-CT was performed using an integrated PET-CT scanner (Discovery DSTE, GE Healthcare). CT scans for attenuation correction and anatomic coregistration were performed before tracer injection. Patients received 5 mCi of [^124I]-PU-HZ151 or [^124I]-PU-H71 by peripheral vein over 2 min. PET data were reconstructed using a standard ordered subset expected maximization iterative algorithm. Emission data were corrected for scatter, attenuation, and decay. PET scans were performed 0.5, 3, and 24 h after tracer administration. Numbers in the scale bar indicate upper and lower standardized uptake value (SUV) thresholds that define pixel intensity on PET images. SUV is a pixel value, derived from PET measurements of in vivo radioactivity, quantified as the fraction of the radioactive dose injected found in a cubic centimeter of measured tissue multiplied (ie, normalized) by patient body weight (grams). Maximum Intensity Projection (MIP) 3D images were constructed from the voxels with maximum intensity that fell in the way of parallel rays traced from the viewpoint to the plane of projection. At each pixel the highest data value encountered along the corresponding viewing ray was determined. MRI scans were obtained as part of routine clinical care using hardware and standard data acquisition and processing methods. MRI was obtained using a 1.5T magnet (Signa HDxt, GE Healthcare, Milwaukee, WI). […] Gadopentetate dimeglumine (Magnevist, HealthCare Pharmaceuticals Inc.) was injected though a peripheral angiocatheter at a standard dose (0.2 mL kg^−1 body weight, 40 mL, 2 cc s^−1). For precise localization of tracer uptake to specific neuroanatomical structures, PET brain images were fused to MRI brain images using the Integrated Registration application of the AW Suite software package (GE Healthcare, Milwaukee, Wisconsin, USA).

A further data set addresses T1, CYP2C8 (Homo sapiens, UniProt P10632).
T1 construct: tissue Life Technologies HMMCPL; host or cells: human liver microsomes
T1 sequence (P10632 1-490): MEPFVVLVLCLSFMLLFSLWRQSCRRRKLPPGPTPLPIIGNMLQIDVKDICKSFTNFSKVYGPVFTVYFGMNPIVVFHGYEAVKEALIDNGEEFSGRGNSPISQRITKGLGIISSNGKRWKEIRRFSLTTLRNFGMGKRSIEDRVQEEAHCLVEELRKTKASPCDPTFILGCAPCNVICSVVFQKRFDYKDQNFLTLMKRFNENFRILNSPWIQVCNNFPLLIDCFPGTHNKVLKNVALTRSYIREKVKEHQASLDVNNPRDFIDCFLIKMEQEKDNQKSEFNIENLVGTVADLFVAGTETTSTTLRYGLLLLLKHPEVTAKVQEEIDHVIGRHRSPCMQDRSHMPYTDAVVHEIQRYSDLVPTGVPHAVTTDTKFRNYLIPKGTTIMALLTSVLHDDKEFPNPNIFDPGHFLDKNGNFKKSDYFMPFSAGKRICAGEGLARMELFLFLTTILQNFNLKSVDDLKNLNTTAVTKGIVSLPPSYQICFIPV
Description: Cytochrome P450 profiling, montelukast. The class given is in vitro ADME. Conditions: for % PU-HZ151 remaining: Montelukast. The protocol:
To identify cytochrome P450 enzymes responsible for PU-HZ151’s metabolism in human liver microsomes the following procedure was followed. Phosphate buffer (100 mM, pH 7.4) was prepared monthly and stored at 4 °C. Frozen stock solutions of human liver microsomes (Life Technologies; Cat# HMMCPL) were used once after thawing and were not refrozen. NADPH stock solution (50 mM) in distilled water was prepared fresh daily. […] The stock solutions of these P450 inhibitors were prepared in DMSO. […] The concentration of the chemical inhibitors used in the assay were furafylline (10 μM), tranylcypromine (2 μM), ketoconazole (1 μM), troleandomycin (20 μM), orphenadrine (50 μM), montelukast (3 μM), sulfaphenazole (10 μM), benzylnirvanol (1 μM), quinidine (1 μM), and 1-aminobenzotriazole (1 mM) for all the P450 enzymes. Timing of the reactions was started following the addition of NADPH/magnesium chloride mix and PU-HZ151. Time-dependent chemical inhibitors (furafylline, troleandomycin, orphenadrine, and 1-aminobenzotriazole) were preincubated with human microsomes in the presence of NADPH and magnesium chloride for 15 min before the addition of PU-HZ151 and timing of reactions was started after addition of PU-HZ151. […] Following brief vortexing and centrifugation, a 200 µL aliquot of the supernatant was transferred to a tube, and 10 µL of haloperidol (1 µg mL^−1) as internal standard was added. Following brief vortexing and centrifugation, 50 µL of supernatant was added to a 96-well plate for subsequent LC-MS/MS analysis. PU-HZ151 was similarly tested as above in the absence of CYP inhibitors for comparative purposes. All samples were assayed in duplicate. […] This was similarly performed for incubations of PU-HZ151 performed in the absence of CYP inhibitor.

As for `CC(C)(C)CNCCn1c(Sc2cc3c(cc2I)OCO3)nc2c(N)ncnc21` [Compound 85], the “species detected in lesions and brain” value in data set [1] was “only the intact PU-HZ151 molecule”. Moreover, the “SUV average, Brain” value in data set [2] (0.5 h) is on record as 1.12 SUV; in data set [2] (3 h), 0.49 SUV; in data set [2] (24 h), 0.04 SUV. The “SUV average, Lung” value in data set [2] (0.5 h) is 0.59 SUV; in data set [2] (3 h) it was 0.34 SUV; in data set [2] (24 h), 0.1 SUV. Further, the “SUV average, Muscle” value was 0.87 SUV in data set [2] (0.5 h), 0.37 SUV in data set [2] (3 h) and 0.1 SUV in data set [2] (24 h). For the same molecule, the “% PU-HZ151 remaining” value was determined as 59.7% at CYP2C8 (15 min), 42.1% at CYP2C8 (30 min) and 22.4% on CYP2C8 (60 min). At CYP2C8 (montelukast), the “inhibition of PU-HZ151 metabolism” value was 6%.
